Each structure is given as a SMILES string.

Type in all cases: biochemical
In test [1] the target is T1, ADAMTS-5 recombinant protein (Homo sapiens (Human), UniProt Q9UNA0). Put plainly: In vitro fluorescence (FRET-peptide) enzymatic assay of ADAMTS-5 activity. The conditions noted are these: FRET peptide substrate 8 μM, 10 nM enzyme, 37° C. 3 hours. The protocol: (§1) A FRET (fluorescence resonance energy transfer) peptide was cleaved by recombinant ADAMTS-4 or ADAMTS-5 proteins into two separate fragments resulting in an increase of fluorescence signal which was quantified. The peptide was 5-FAM-[…](5-TAMRA)K-NH2, customized from ANASPEC. ADAMTS-4 recombinant protein (catalog #4307-AD) and ADAMTS-5 recombinant protein (catalog #2198-AD) were purchased from R&D Systems.
T1 sequence (Q9UNA0 262-622): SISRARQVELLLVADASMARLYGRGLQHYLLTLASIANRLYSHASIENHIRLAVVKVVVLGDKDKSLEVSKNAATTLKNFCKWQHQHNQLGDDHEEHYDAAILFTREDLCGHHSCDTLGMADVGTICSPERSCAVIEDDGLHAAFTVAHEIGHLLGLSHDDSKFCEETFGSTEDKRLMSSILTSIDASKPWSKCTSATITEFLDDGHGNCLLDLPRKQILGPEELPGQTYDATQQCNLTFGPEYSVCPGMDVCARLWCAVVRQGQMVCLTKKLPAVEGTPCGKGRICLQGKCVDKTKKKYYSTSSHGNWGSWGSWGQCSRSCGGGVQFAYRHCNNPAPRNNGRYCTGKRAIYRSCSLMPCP
(§2) An assay buffer containing 50 mM HEPES pH 7.5, 100 mM NaCl, 5 mM CaCl2, 0.1% CHAPS and 5% Glycerol was prepared. A volume of 2.5 μl of compound in the assay buffer was dispensed to a 384-well plate, and 2.5 μl of ADAMTS-4 or ADAMTS-5 protein (final concentration in the reaction was 10 nM) was added. The compounds and proteins were pre-incubated at room temperature for 15 minutes. Then, 5 μl of substrate was added to each well. The final substrate concentrations for ADAMTS-4 and ADAMTS-5 were 15 μM and 8 μM, respectively. The fluorescence signal in each well was determined, after incubation at 37° C. for 3 hours, on a TECAN plate reader (Excitation, 490 nm; Emission, 520 nm).
(§3) The data was inputted into GraphPad Prism, and the IC50 values were calculated using function “log (inhibitor) vs. response—Variable slope (four parameters)”. (See Table 1)

Test [2] has as its target T1, ADAMTS-5 recombinant protein. Description: In vitro ELISA of ADAMTS-5 activity (Aggrecan-IGD enzymatic assay). The conditions noted are these: aggrecan-IGD substrate, ARGSVIL-peptide ELISA, 37° C. 45 minutes. The protocol:
In this assay, the enzymatic activity of recombinant ADAMTS-5 protein (catalog #2198-AD, R&D Systems) was assayed with a protein substrate, the aggrecan IGD protein. The aggrecan IGD protein is a polypeptide connecting human aggrecan globular domains 1 and 2 (T331-G458) expressed in E. Coli with a C-terminal His-tag (catalog #30411000, BIOTEZ). The enzymatic product ARGSVIL-peptide was detected using an ELISA kit from BioTEZ (catalog #30510111).
An assay buffer containing 50 mM HEPES pH 7.5, 100 mM NaCl, 5 mM CaCl2), 0.1% CHAPS and 5% Glycerol was prepared. Recombinant ADAMTS-5 protein was diluted to 0.3 nM in the assay buffer. Ten μl of […] and 10 μl of compound solution was transferred to each well of a 96-well plate and incubated at room temperature for 15 minutes. Substrate aggrecan-IGD was diluted to 100 nM with the assay buffer and 20 μl was added to each well. The plate was incubated at 37° C. for 45 minutes. After incubation, the newly generated epitope ARGSVIL-peptides were measured using the Aggrecanase Activity ELISA Assay Kit following the manufacturer's instructions. Then, 100 μl of stop solution was added and the absorbance of each well was read at 450 nm, using […] as reference on a TECAN plate reader.
A standard curve of the ELISA assay was generated in GraphPad Prism using Sigmoidal 4PL function and the corresponding peptide concentrations were calculated based on the standard curve. The IC50 values were calculated using function “log (inhibitor) vs. response—Variable slope (four parameters)”. (See Table 2).
A general note: An ELISA detects its analyte on a solid surface through an enzyme-linked reagent.

Test [3] has as its target ADAMTS-4 recombinant protein (Homo sapiens (Human), UniProt O75173). Put plainly: In vitro fluorescence (FRET-peptide) enzymatic assay of ADAMTS-4 activity. The conditions noted are these: FRET peptide substrate 15 μM, 10 nM enzyme, 37° C. 3 hours. The protocol:
as §1, §2, §3

Sequence of ADAMTS-4 recombinant protein (O75173 213-685): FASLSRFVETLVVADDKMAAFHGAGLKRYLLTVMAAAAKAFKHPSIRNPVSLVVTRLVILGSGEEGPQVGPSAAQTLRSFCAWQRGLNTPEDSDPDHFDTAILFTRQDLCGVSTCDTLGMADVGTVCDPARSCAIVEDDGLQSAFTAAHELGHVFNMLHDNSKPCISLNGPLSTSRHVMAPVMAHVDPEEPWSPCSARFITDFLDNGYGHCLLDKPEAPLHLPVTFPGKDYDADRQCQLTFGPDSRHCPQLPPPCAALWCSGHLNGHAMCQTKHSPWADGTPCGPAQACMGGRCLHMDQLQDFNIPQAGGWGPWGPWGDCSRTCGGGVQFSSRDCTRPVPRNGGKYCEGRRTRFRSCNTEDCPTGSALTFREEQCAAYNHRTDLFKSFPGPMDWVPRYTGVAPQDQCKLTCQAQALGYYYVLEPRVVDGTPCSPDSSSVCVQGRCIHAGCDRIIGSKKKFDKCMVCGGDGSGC

On to `O=C1NC(=O)[C@](CCC(=O)N2CCc3cc(C(F)(F)F)ccc3C2)(C2CC2)N1` [Example 6, (S)-5-cyclopropyl-5-(3-oxo-3-(6-(trifluoromethyl)-3,4-dihydroisoquinolin-2 (1H)-yl)propyl)imidazolidine-2,4-dione], for which the IC50 (as a rule, the point on the concentration scale where inhibition reaches its midpoint) in test [1] was 240 nM; in test [2], 650 nM; in test [3], 56 nM.

On to `O=C1NC(=O)[C@](CCC(=O)N2Cc3ccccc3C2)(C2CC2)N1` [Example 11, (S)-5-cyclopropyl-5-(3-(isoindolin-2-yl)-3-oxopropyl)imidazolidine-2,4-dione], for which the IC50 in test [1] turned out to be 410 nM; in test [2] it was 560 nM; in test [3], 110 nM.

For the compound `CC1CN(C(=O)CC[C@@]2(C3CC3)NC(=O)NC2=O)CCc2ccc(F)cc21` (stereo partly drawn) [Example 22, (5S)-5-cyclopropyl-5-(3-(8-fluoro-1-methyl-1,2,4,5-tetrahydro-3H-benzo[d]azepin-3-y1)-3-oxopropyl)imidazolidine-2,4-dione], the values for the IC50 in test [1], in test [2] and in test [3] were 61 nM, 140 nM and 51 nM, respectively.

For the compound `COc1ccc2c(c1)CN(C(=O)CC[C@@]1(C3CC3)NC(=O)NC1=O)C2` [Example 24, (S)-5-cyclopropyl-5-(3-(5-methoxyisoindolin-2-yl)-3-oxopropyl)imidazolidine-2,4-dione], the results for the IC50 in test [1], in test [2] and in test [3] were 360 nM, 840 nM and 120 nM, respectively.

Regarding `CC(C[C@@]1(C2CC2)NC(=O)NC1=O)C(=O)N1Cc2ccc(C(F)(F)F)cc2C1` (stereo partly drawn) [Example 29, (5S)-5-cyclopropyl-5-(2-methyl-3-oxo-3-(5-(trifluoromethyl)isoindolin-2-yl)propyl)imidazolidine-2,4-dione], the results for the IC50 in test [1], in test [2] and in test [3] were 22 nM, 56 nM and 14 nM, respectively.

For `COc1cc2c(cc1Cl)CN(C(=O)CC[C@@]1(C3CC3)NC(=O)NC1=O)C2` [Example 35, (S)-5-(3-(5-chloro-6-methoxyisoindolin-2-yl)-3-oxopropyl)-5-cyclopropylimidazolidine-2,4-dione], the IC50 was 110 nM in test [1], 170 nM in test [2] and 230 nM in test [3].

Turning to `COc1cc2c(cc1Cl)CN(C(=O)C(C)C[C@@]1(C3CC3)NC(=O)NC1=O)C2` (stereo partly drawn) [Example 36-1, (5S)-5-(3-(5-chloro-6-methoxyisoindolin-2-yl)-2-methyl-3-oxopropyl)-5-cyclopropylimidazolidine-2,4-dione], the IC50 in test [1] was 15 nM; in test [2] it was 36 nM; in test [3], 21 nM.

On to `CC1CN(C(=O)CC[C@@]2(C3CC3)NC(=O)NC2=O)CCc2cc(Cl)c(Cl)cc21` (stereo partly drawn) [Example 37, (S)-5-cyclopropyl-5-(3-(7,8-dichloro-1-methyl-1,2,4,5-tetrahydro-3H-benzo [d]azepin-3-yl)-3-oxopropyl)imidazolidine-2,4-dione], for which the figures for the half-maximal inhibitory concentration (IC50) in test [1], in test [2] and in test [3] were 13 nM, 16 nM and 5 nM, respectively.

With `CC1CN(C(=O)CC[C@@]2(C3CC3)NC(=O)NC2=O)CCc2ccc(Cl)c(Cl)c21` (stereo partly drawn) [Example 38, (S)-5-cyclopropyl-5-(3-(8,9-dichloro-1-methyl-1,2,4,5-tetrahydro-3H-benzo [d]azepin-3-yl)-3-oxopropyl)imidazolidine-2,4-dione], the IC50 was found to be 31 nM in test [1], 29 nM in test [2] and 62 nM in test [3].

With `O=C1NC(=O)[C@](CCC(=O)N2Cc3cc(F)c(C(F)(F)F)cc3C2)(C2CC2)N1` [Example 39, (S)-5-cyclopropyl-5-(3-(5-fluoro-6-(trifluoromethyl)isoindolin-2-yl)-3-oxopropyl)imidazolidine-2,4-dione], the IC50 in test [1] stood at 62 nM; in test [2], 65 nM; in test [3] it was 110 nM.

For `CC1c2cc(C(F)(F)F)c(Cl)cc2CN1C(=O)CC[C@@]1(C2CC2)NC(=O)NC1=O` (stereo partly drawn) [Example 41, (5S)-5-(3-(5-chloro-1-methyl-6-(trifluoromethyl)isoindolin-2-yl)-3-oxopropyl)-5-cyclopropylimidazolidine-2,4-dione], the IC50 in test [1] was determined as 21 nM; in test [2], 18 nM; in test [3] it was 36 nM.

Consider `CC(C)C(C[C@@]1(C2CC2)NC(=O)NC1=O)C(=O)N1Cc2ccc(C(F)(F)F)cc2C1` (stereo partly drawn) [Example 49-2, (5S)-5-cyclopropyl-5-(3-methyl-2-(5-(trifluoromethyl)isoindoline-2-carbonyl)butyl)imidazolidine-2,4-dione], for which the IC50 in test [1] was found to be 20 nM; in test [2], 55 nM; in test [3], 15 nM.

For the compound `Nc1cc2c(cc1Cl)CN(C(=O)CC[C@@]1(C3CC3)NC(=O)NC1=O)C2` [Example 54, (S)-5-(3-(5-amino-6-chloroisoindolin-2-yl)-3-oxopropyl)-5-cyclopropylimidazolidine-2,4-dione], the figures for the IC50 in test [1], in test [2] and in test [3] were 110 nM, 200 nM and 11 nM, respectively.

On to `Cc1cc2c(cc1Cl)CN(C(=O)CC[C@@]1(C3CC3)NC(=O)NC1=O)C2` [Example 57, (S)-5-(3-(5-chloro-6-methylisoindolin-2-yl)-3-oxopropyl)-5-cyclopropylimidazolidine-2,4-dione], for which the IC50 in test [1] was found to be 130 nM; in test [2] it was 190 nM; in test [3], 43 nM.

Regarding `O=C1NC(=O)C(CCC(=O)N2Cc3cc(Cl)c(Cl)cc3C2)(c2ccccn2)N1` (stereo not drawn) [Example 61, 5-(3-(5,6-dichloroisoindolin-2-yl)-3-oxopropyl)-5-(pyridin-2-yl)imidazolidine-2,4-dione], the IC50 in test [1] worked out at 42 nM; in test [2] it was 72 nM; in test [3] it was 40 nM.

As to `Cn1ccnc1C1(CCC(=O)N2Cc3ccc(C(F)(F)F)cc3C2)NC(=O)NC1=O` (stereo not drawn) [Example 62, 5-(1-methyl-1H-imidazol-2-yl)-5-(3-oxo-3-(5-(trifluoromethyl)isoindolin-2-yl)propyl)imidazolidine-2,4-dione], the IC50 in test [1] is 89 nM; in test [2], 290 nM; in test [3], 100 nM.

With `O=C1NC(=O)C(CC(COCc2ccccc2)C(=O)N2Cc3ccc(C(F)(F)F)cc3C2)(C2CC2)N1` (stereo not drawn) [Example 65, 5-(2-((benzyloxy)methyl)-3-oxo-3-(5-(trifluoromethyl)isoindolin-2-yl)propyl)-5-cyclopropylimidazolidine-2,4-dione], the IC50 is 21 nM in test [1], 31 nM in test [2] and 16 nM in test [3].

`CC1c2cc(Cl)c(Cl)cc2CN1C(=O)CC[C@@]1(C2CC2)NC(=O)NC1=O` (stereo partly drawn) [Example 66, (5S)-5-cyclopropyl-5-(3-(5,6-dichloro-1-methylisoindolin-2-yl)-3-oxopropyl)imidazolidine-2,4-dione]: the IC50 in test [1] stood at 52 nM; in test [2] it was 83 nM; in test [3], 43 nM.

On to `[2H]C1([2H])c2cc(Cl)c(Cl)cc2C(C)N1C(=O)CC[C@@]1(C2CC2)NC(=O)NC1=O` (stereo partly drawn) [Example 69, (5S)-5-cyclopropyl-5-(3-(5,6-dichloro-1-methylisoindolin-2-yl-3,3-d2)-3-oxopropyl)imidazolidine-2,4-dione], for which the IC50 in test [1] stood at 40 nM; in test [2], 47 nM; in test [3], 68 nM.

For the compound `[2H]C1([2H])c2cc(Cl)c(C(F)(F)F)cc2C(C)N1C(=O)CC[C@@]1(C2CC2)NC(=O)NC1=O` (stereo partly drawn) [Example 71, (5S)-5-(3-(5-chloro-1-methyl-6-(trifluoromethyl)isoindolin-2-yl-3,3-d2)-3-oxopropyl)-5-cyclopropylimidazolidine-2,4-dione], the IC50 in test [1] came to 26 nM; in test [2] it was 29 nM; in test [3], 54 nM.

The values above are taken from patent publication US20240299360A1, “ADAMTS INHIBITORS, PREPARATION METHODS AND MEDICINAL USES THEREOF” (Jiangsu Hengrui Pharmaceuticals Co., Ltd., priority 2020, published 2024).
